Laboratory results published in US20230399320A1, “NOVEL CAPSID ASSEMBLY INHIBITOR” (Pelemed Co., Ltd., priority 2020, published 2023).
Like-named read-outs stand apart in the source and are kept apart here.

Key:
[1] = biological target: T1, Cp149 (truncated form of a HBV core protein) (Hepatitis B virus genotype D subtype ayw, UniProt P03146); experiment: Protein based assay: immunoblot analysis of in vitro HBV capsid assembly; assay type: biochemical; conditions: for inhibition at 10 µM: read-out: Protein based assay (% inhibition, 10 μM); for inhibition at 0.1 µM: read-out: Protein based assay (% inhibition), 0.1 μM; for inhibition at 1 µM: read-out: Protein based assay (% inhibition), 1 μM
T1 construct: Cp149 (amino acids 1-149) is a truncated form of a HBV core protein; histidine tag (cleaved yes); made in house; host or cells: Escherichia coli BL21(DE3)
Protocol: Cp149 (amino acids 1-149) is a truncated form of a HBV core protein. It was expressed in Escherichia coli, and the expressed protein was purified. The recombinant Cp149 was expressed in E. coli BL21(DE3) cells cultured in LB medium at 37° C. When the culture reached an OD600 of 0.7 to 0.8, expression of the culture was induced with 0.5 mM isopropyl-β-d-thiogalactopyranoside and the culture was cooled to 16° C. After 16 hours, the cells were harvested, flash-frozen in liquid nitrogen, and stored at −80° C. To purify Cp149, thawed cells were resuspended in lysis buffer (20 mM Tris-HCl pH 9.0, 200 mM NaCl, 10 mM imidazole, 10 μg per mL DNaseI, 1 mM phenylmethylsulfonyl fluoride), and treated with ultrasonic waves. The supernatant was loaded onto Ni-NTA affinity resin. Proteins were eluted using a 20 mM to 500 mM imidazole gradient dissolved in lysis buffer. After removing the histidine tag with thrombin, the protein was further purified by HiTrap Q anion exchange chromatography (17115401, GE Healthcare).
To determine the effect on in vitro Cp149 assembly, compounds of the present invention were added to the Cp149-containing suspension. The final concentration of Cp149 was 1 mg per mL, and the compounds of the present invention were added at concentrations of 0.1 to 10 μM. The suspension was mixed with reaction buffer (150 mM HEPES, pH 7.5, 15 mM NaCl) added in a 2:1 ratio. In vitro assembly was performed at 37° C. for 1 hour, and HBV capsid was detected by immunoblot analysis using an anti-HBV core antibody (1:2000, B0586, Dako).

HBV DNA = experiment: Quantitative PCR for measuring HBV DNA in cells (HBV DNA quantification); assay type: cell-based
Protocol: After treating cells with the indicated compounds, HBV DNA secreted into the medium and intracellular HBV DNA were extracted, purified, and quantified by quantitative PCR. To isolate the secreted HBV DNA, the culture medium was recovered and centrifuged at 15,000×g to remove debris. The medium was diluted 1:1 with phosphate-buffered saline (PBS), and 1 M NaOH solution was added to a final concentration of 0.1 M. The mixture was incubated at 37° C. for 1 hour. The protein was denatured by adding 2M Tris-HCl solution (pH 7.5) to a final concentration of 0.2 M and incubating at 98° C. for 5 minutes. The protein precipitation was removed by centrifugation at 15,000×g, and the supernatant was subjected to PCR with HBV DNA primer and probe sets:
Forward: 5′-[…]-3′, Reverse: 5′-[…]-3′, Probe: 5′-[…]-3′.

[2] = Hepatitis B virus, read-out: HBV DNA quantification (IC50 μM)
[3] = Hepatitis B virus; read-out: HBV DNA quantification (IC50 μM)

T1 sequence (P03146 1-149): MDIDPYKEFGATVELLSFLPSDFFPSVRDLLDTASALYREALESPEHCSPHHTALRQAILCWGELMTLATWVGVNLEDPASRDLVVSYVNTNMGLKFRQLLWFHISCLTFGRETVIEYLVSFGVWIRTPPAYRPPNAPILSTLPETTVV

| Compound | inhibition at 10 µM [1] [%] | IC50 (HBV DNA; [2]) [µM] | IC50 (HBV DNA; [3]) [µM] | inhibition at 0.1 µM [1] [%] | inhibition at 1 µM [1] [%] |
| --- | --- | --- | --- | --- | --- |
| CC(C)(C)OC(=O)N1CCN(c2cc(NCc3cc(F)c(F)c(F)c3)nc(S(C)(=O)=O)n2)CC1 [Compound 22l, tert-butyl 4-(2-(methylsulfonyl)-6-(3,4,5-trifluorobenzylamino)pyrimidin-4-yl)piperazine-1-carboxylate] | 89 | 1.02 | – | – | – |
| CS(=O)(=O)c1nc(Nc2ccc(F)cc2)cc(N2CCNCC2)n1 [Compound 26a, N-(4-fluorophenyl)-2-(methylsulfonyl)-6-(piperazin-1-yl)pyrimidin-4-amine] | 86 | – | 0.962 | – | – |
| CS(=O)(=O)c1nc(Nc2cc(F)c(F)c(F)c2)cc(N2CCNCC2)n1 [Compound 26b, 2-(methylsulfonyl)-6-(piperazin-1-yl)-N-(3,4,5-trifluorophenyl)pyrimidin-4-amine] | – | – | 0.203 | 39 | 92 |
| CS(=O)(=O)c1nc(Nc2ccc(F)c(Cl)c2)cc(N2CCNCC2)n1 [Compound 26c, N-(3-chloro-4-fluorophenyl)-2-(methylsulfonyl)-6-(piperazin-1-yl)pyrimidin-4-amine] | – | 0.189 | – | 47 | 90 |
| CS(=O)(=O)c1nc(Nc2ccc(F)c(Br)c2)cc(N2CCNCC2)n1 [Compound 26d, N-(3-bromo-4-fluorophenyl)-2-(methylsulfonyl)-6-(piperazin-1-yl)pyrimidin-4-amine] | – | – | 0.547 | 13 | 98 |
| CS(=O)(=O)c1nc(Nc2cc(F)c(F)c(F)c2)cc(NC2CCNCC2)n1 [Compound 26e, 2-(methylsulfonyl)-N^4-(piperidin-4-yl)-N^6-(3,4,5-trifluorophenyl)pyrimidine-4,6-diamine] | – | – | 0.19 | 16 | 90 |
| CS(=O)(=O)c1nc(Nc2ccc(F)c(Cl)c2)cc(NC2CCNCC2)n1 [Compound 26f, N^4-(3-chloro-4-fluorophenyl)-2-(methylsulfonyl)-N^6-(piperidin-4-yl)pyrimidine-4,6-diamine] | – | 0.199 | – | 59 | 95 |
| CS(=O)(=O)c1nc(Nc2ccc(F)c(Br)c2)cc(NC2CCNCC2)n1 [Compound 26g, N^4-(3-bromo-4-fluorophenyl)-2-(methylsulfonyl)-N^6-(piperidin-4-yl)pyrimidine-4,6-diamine] | – | – | 0.536 | 7 | 97 |
| CS(=O)(=O)c1nc(Nc2ccc(F)c(Cl)c2)cc(N2CCC(N)CC2)n1 [Compound 26i, 6-(4-aminopiperidin-1-yl)-N-(3-chloro-4-fluorophenyl)-2-(methylsulfonyl)pyrimidin-4-amine] | – | 0.181 | – | 52 | 99 |
| CS(=O)(=O)c1nc(Nc2ccc(F)c(Br)c2)cc(N2CCC(N)CC2)n1 [Compound 26j, 6-(4-aminopiperidin-1-yl)-N-(3-bromo-4-fluorophenyl)-2-(methylsulfonyl)pyrimidin-4-amine] | – | – | 0.48 | 10 | 98 |
